Patent publication US20090162413A1 (priority 1998, published 2009)

Key:
[1] = release of zotarolimus from PC polymer coated 316L stainless steel coupons (Example 4); format: physicochemical
Excerpt: The purpose of this example is to determine the rate of release of the zotarolimus drug from 316L Electropolished Stainless Steel Coupons coated with a biocompatible polymer containing phosphorylcholine side groups.
Rubber septa from lids from HPLC vials were removed from the vials and placed into glass vials so that the “Teflon” side faced up. These septa served as supports for the test samples. The test samples were 316L stainless steel coupons that had been previously coated with a biocompatible polymer containing phosphorylcholine side groups (PC polymer). Coronary stents are commonly made of 316L stainless steel and can be coated with the PC polymer to provide a depot site for loading drugs. The coated coupons, which serve to simulate stents, were placed onto the septa. By using a glass Hamilton Syringe, a solution of zotarolimus and ethanol (10 μl) was applied to the surface of each coupon. The solution contained zotarolimus (30.6 mg) dissolved in 100% ethanol (3.0 ml). The syringe was cleaned with ethanol between each application. The cap to the glass vial was placed on the vial loosely, thereby assuring proper ventilation. The coupon was allowed to dry for a minimum of 1.5 hours. Twelve (12) coupons were loaded in this way—six being used to determine the average amount of drug loaded onto the device and six being used to measure the time needed to release the drug from the devices.
To determine the total amount of zotarolimus loaded onto a coupon, a coupon was removed from the vial and placed into 50/50 acetonitrile/0.01M phosphate buffer (pH 6.0, 5.0 ml). The coupon was placed onto a 5210 Branson sonicator for one hour. The coupon was then removed from the solution, and the solution was assayed by HPLC.
The time release studies were performed by immersing and removing the individual coupons from fresh aliquots (10.0 ml) of 0.01 M phosphate buffer at a pH of 6.0 at each of the following time intervals −5, 15, 30 and 60 minutes. For the remaining time points of 120, 180, 240, 300, 360 minutes, volumes of 5.0 ml of buffer were used. To facilitate mixing during the drug release phase, the samples were placed onto an Eberbach shaker set at low speed. All solution aliquots were assayed by HPLC after the testing of the last sample was completed.
The HPLC analysis was performed with a Hewlett Packard series 1100 instrument having the following settings: […]

[2] = tested on: human coronary artery smooth muscle cells (hCaSMC); experiment: 3H-thymidine uptake proliferation assay, hCaSMC; format: cell-based; conditions: Homo sapiens; read-out: hCaSMC IC50 Mean ± SEM
Description: Experiments were performed to investigate interactions between zotarolimus (ABT-578) and paclitaxel when administered in combination. The effects of paclitaxel and zotarolimus on the anti-proliferative activity of human coronary artery smooth muscle ([…]) and endothelial […] determined using an in vitro proliferation assay. The proliferation and migration of vascular smooth muscle cells into the vascular neointima is a characteristic pathologic response seen in restenotic lesions (Lafont and Libby, 1998). As a result, in vitro assays which specifically measure the anti-proliferative activity of candidate anti-restenotic compounds on human coronary artery smooth muscle and endothelial cells predict potential anti-restenotic activity in vivo. Compounds or combinations of compounds which attenuate growth factor-mediated human coronary artery smooth muscle cell ([…]) proliferation, as measured by the tritium incorporation assay in vitro, are candidate anti-restenotic agents. The tritium incorporation assay is an accurate and sensitive method to determine cell number and proliferation. […] The attenuation of zotarolimus's anti-proliferative activity by tacrolimus is a clear example of this effect (FIG. 10A). To determine the potential anti-restenotic activity of combinations of zotarolimus and paclitaxel, the proliferation of […] was measured in the presence of each compound and in combination. To determine if paclitaxel attenuated or augmented the activity of zotarolimus the effect of paclitaxel and zotarolimus alone and in combination on growth-factor induced proliferation was determined. Data were analyzed for additivity using an isobologram approach and a combination index analysis. An isobologram is a Cartesian plot of pairs of doses that, in combination, yield a specified level of effect. It is a convenient way of graphically displaying results of drug-combination and similar studies, because paired values of experimental points that fall below or above the line connecting the axial points indicate synergistic and non-synergistic interactions, respectively. Cell proliferation was monitored by following incorporation of ^3H-thymidine into newly synthesized DNA of cells stimulated by serum and growth factors. Exponentially growing […] were seeded into 96-well flat bottom tissue culture plates at 5,000 cells/well (10,000 cells/well for […]). The cells were allowed to attach overnight. The growth medium was removed the following day, and cells were washed twice with un-supplemented (basal) medium to remove traces of serum and growth factors. […] PerkinElmer; Wellesley; MA) was added to each filter well and the plates were counted using a TopCount microplate scintillation counter (PerkinElmer). […]

Structure (SMILES): CO[C@H]1C[C@@H]2CC[C@@H](C)[C@@](O)(O2)C(=O)C(=O)N2CCCC[C@H]2C(=O)O[C@H]([C@H](C)C[C@@H]2CC[C@H](n3cnnn3)[C@H](OC)C2)CC(=O)[C@H](C)/C=C(\C)[C@@H](O)[C@@H](OC)C(=O)[C@H](C)C[C@H](C)/C=C/C=C/C=C/1C [zotarolimus]
- Percent Release ([1]; 0.01 M phosphate buffer pH 6.0, 0.00 min): 0.00
- Percent Release ([1]; 0.01 M phosphate buffer pH 6.0, 5.00 min): 1.87
- Percent Release ([1]; 0.01 M phosphate buffer pH 6.0, 15.00 min): 2.97
- Percent Release ([1]; 0.01 M phosphate buffer pH 6.0, 30.00 min): 3.24
- Percent Release ([1]; 0.01 M phosphate buffer pH 6.0, 60.00 min): 3.29
- Percent Release ([1]; 0.01 M phosphate buffer pH 6.0, 180.00 min): 4.36
- Percent Release ([1]; 0.01 M phosphate buffer pH 6.0, 240.00 min): 4.37
- Percent Release ([1]; 0.01 M phosphate buffer pH 6.0, 300.00 min): 6.34
- Percent Release ([1]; 0.01 M phosphate buffer pH 6.0, 360.00 min): 7.88
- IC50 [2]: 4.2 ± 1.7 nM
